Experimental data reported in ChEMBL document CHEMBL1142788, “Synthesis and antibacterial activity of alkyl derivatives of the glycopeptide antibiotic A40926 and their amides” (2005).
Values after ≈ are worked out from the molar mass of the structure shown.

How the values were obtained:
Enterococcus faecalis [1] = test: Minimum inhibitory concentration against vancomycin-sensitive Enterococcus faecalis in the presence of 30% bovine serum (n=3) (range = 0.25-0.5mg/l); format: functional
[2] = test system: Staphylococcus haemolyticus; test: Minimum inhibitory concentration against Staphylococcus haemolyticus in the presence of 30% bovine serum; format: functional
[3] = test system: Staphylococcus epidermidis; test: Minimum inhibitory concentration against methicillin-sensitive Staphylococcus epidermidis in the presence of 30% bovine serum; format: functional
Enterococcus faecium [4] = test: Minimum inhibitory concentration against vancomycin-A Enterococcus faecium in the presence of 30% bovine serum (n=1) (range = 4>128mg/L); format: functional
Enterococcus faecium [5] = test: Minimum inhibitory concentration against vancomycin-sensitive Enterococcus faecium in the presence of 30% bovine serum(n=1); format: functional
Enterococcus faecalis [6] = test: Minimum inhibitory concentration against vancomycin-A Enterococcus faecalis in the presence of 30% bovine serum (n=4) (range = 1-16mg/L); format: functional
Staphylococcus aureus [7] = test: Minimum inhibitory concentration against methicillin-sensitive Staphylococcus aureus
[8] = test system: Staphylococcus epidermidis; test: Minimum inhibitory concentration against methicillin-resistant Staphylococcus epidermidis in the presence of 30% bovine serum; format: functional
Staphylococcus aureus [9] = test: Minimum inhibitory concentration against methicillin-resistant Staphylococcus aureus
Enterococcus faecalis [10] = test: Minimum inhibitory concentration against vancomycin-A Enterococcus faecalis in the presence of 30% bovine serum(n=4) (128 >128mg/L); format: functional
Enterococcus faecium [11] = test: Minimum inhibitory concentration against vancomycin-A Enterococcus faecium in the presence of 30% bovine serum (n=1) (range = 64>128mg/L); format: functional
Enterococcus faecalis [12] = test: Minimum inhibitory concentration against vancomycin-sensitive Enterococcus faecalis in the presence of 30% bovine serum(n=3)(range = 1-2mg/l); format: functional
Enterococcus faecalis [13] = test: Minimum inhibitory concentration against vancomycin-sensitive Enterococcus faecalis in the presence of 30% bovine serum (n=3) (range = <0.125-0.25mg/l); format: functional
Enterococcus faecium [14] = test: Minimum inhibitory concentration against vancomycin-A Enterococcus faecium in the presence of 30% bovine serum (n=1) (range = 0.25-32mg/l); format: functional
Enterococcus faecalis [15] = test: Minimum inhibitory concentration against vancomycin-A Enterococcus faecalis in the presence of 30% bovine serum(n=4) (range = 0.5-64mg/L); format: functional
Enterococcus faecalis [16] = test: Minimum inhibitory concentration against vancomycin-sensitive Enterococcus faecalis in the presence of 30% bovine serum(n=3)(range = 0.125-0.25mg/l); format: functional
Enterococcus faecalis [17] = test: Minimum inhibitory concentration against vancomycin-A Enterococcus faecalis in the presence of 30% bovine serum (n=4) (range = 8-64mg/L); format: functional
Enterococcus faecium [18] = test: Minimum inhibitory concentration against vancomycin-A Enterococcus faecium in the presence of 30% bovine serum (n=1) (range = 32>128mg/L); format: functional
Enterococcus faecalis [19] = test: Minimum inhibitory concentration against vancomycin-A Enterococcus faecalis (n=4) (Range = 1 - 8 mg/L)
Enterococcus faecium [20] = test: Minimum inhibitory concentration against vancomycin-A Enterococcus faecium in the presence of 30% bovine serum (n=1) (range = 2>128); format: functional
Enterococcus faecium [21] = test: Minimum inhibitory concentration against vancomycin-sensitive Enterococcus faecium in the presence of 30% bovine serum(n=1) (range = 1-8 mg/l); format: functional
Enterococcus faecalis [22] = test: Minimum inhibitory concentration against vancomycin-sensitive Enterococcus faecalis in the presence of 30% bovine serum(n=3)(range = 0.125-0.5mg/l); format: functional
Staphylococcus aureus [23] = test: Minimum inhibitory concentration against methicillin-sensitive Staphylococcus aureus without serum

Row | Compound | MIC [2] [µg/mL] | MIC [3] [µg/mL] | MIC (Enterococcus faecium [5]) [µg/mL] | MIC (Staphylococcus aureus [7]) [µg/mL] | MIC [8] [µg/mL] | MIC (Staphylococcus aureus [9]) [µg/mL] | further results
1 | CN(Cc1ccc(-c2ccccc2)cc1)[C@H]1C(=O)N[C@@H]2Cc3ccc(cc3)Oc3cc4cc(c3O[C@@H]3OC(C(=O)O)C(O)[C@H](O)C3NCc3ccc(-c5ccccc5)cc3)Oc3ccc(cc3Cl)[C@@H](O)C3NC(=O)[C@H](NC(=O)[C@@H]4NC(=O)[C@@H](NC2=O)c2cc(cc(O)c2Cl)Oc2cc1ccc2O)c1ccc(O)c(c1)-c1c(O[C@H]2O[C@H](CO)[C@@H](O)[C@H](O)[C@@H]2O)cc(O)cc1[C@@H](C(=O)O)NC3=O (some centres undefined) | 64 | 0.5 | 0.5 | 0.5 (≈ 0.266 µM) | 4 | 0.5 (≈ 0.266 µM) | MIC (Enterococcus faecalis [1]): 0.5 µg/mL; MIC (Enterococcus faecium [4]): > 128 µg/mL; MIC (Enterococcus faecalis [6]): 16 µg/mL
2 | CCCCOc1ccc(CN(C)[C@H]2C(=O)N[C@@H]3Cc4ccc(cc4)Oc4cc5cc(c4O[C@@H]4OC(C(=O)O)C(O)[C@H](O)C4N)Oc4ccc(cc4Cl)[C@@H](O)C4NC(=O)[C@H](NC(=O)[C@@H]5NC(=O)[C@@H](NC3=O)c3cc(cc(O)c3Cl)Oc3cc2ccc3O)c2ccc(O)c(c2)-c2c(O[C@H]3O[C@H](CO)[C@@H](O)[C@H](O)[C@@H]3O)cc(O)cc2[C@@H](C(=O)O)NC4=O)cc1 (some centres undefined) | > 128 | 32 | 2 | 4 (≈ 2.34 µM) | 128 | 2 (≈ 1.17 µM) | MIC (Enterococcus faecalis [10]): 128 µg/mL; MIC (Enterococcus faecium [11]): > 128 µg/mL; MIC (Enterococcus faecalis [12]): 2 µg/mL
3 | CN(C)CCCNC(=O)C1O[C@@H](Oc2c3cc4cc2Oc2ccc(cc2Cl)[C@@H](O)C2NC(=O)[C@H](NC(=O)[C@@H]4NC(=O)[C@H]4NC(=O)[C@@H](Cc5ccc(cc5)O3)NC(=O)[C@H](N(C)Cc3ccc5ccccc5c3)c3ccc(O)c(c3)Oc3cc(O)c(Cl)c4c3)c3ccc(O)c(c3)-c3c(O[C@H]4O[C@H](CO)[C@@H](O)[C@H](O)[C@@H]4O)cc(O)cc3[C@@H](C(=O)NCCCN(C)C)NC2=O)C(NCc2ccc3ccccc3c2)[C@@H](O)C1O (some centres undefined) | 1 | < 0.125 | 0.25 | 1 (≈ 0.5 µM) | 2 | 2 (≈ 1 µM) | MIC (Enterococcus faecalis [13]): < 0.25 µg/mL; MIC (Enterococcus faecium [14]): > 32 µg/mL; MIC (Enterococcus faecalis [15]): 64 µg/mL
4 | CCCCCCCCOc1ccc(CNC2[C@H](Oc3c4cc5cc3Oc3ccc(cc3Cl)[C@@H](O)C3NC(=O)[C@H](NC(=O)[C@@H]5NC(=O)[C@H]5NC(=O)[C@@H](Cc6ccc(cc6)O4)NC(=O)[C@H](NC)c4ccc(O)c(c4)Oc4cc(O)c(Cl)c5c4)c4ccc(O)c(c4)-c4c(O[C@H]5O[C@H](CO)[C@@H](O)[C@H](O)[C@@H]5O)cc(O)cc4[C@@H](C(=O)O)NC3=O)OC(C(=O)O)C(O)[C@@H]2O)cc1 (some centres undefined) | 16 | 16 | 0.5 | 2 (≈ 1.13 µM) | – | 1 (≈ 0.565 µM) | MIC (Enterococcus faecalis [16]): 0.125 µg/mL; MIC (Enterococcus faecalis [17]): 64 µg/mL; MIC (Enterococcus faecium [18]): > 128 µg/mL
5 | CCCCOc1ccc(CNC2[C@H](Oc3c4cc5cc3Oc3ccc(cc3Cl)[C@@H](O)C3NC(=O)[C@H](NC(=O)[C@@H]5NC(=O)[C@H]5NC(=O)[C@@H](Cc6ccc(cc6)O4)NC(=O)[C@H](N(C)Cc4ccc(OCCCC)cc4)c4ccc(O)c(c4)Oc4cc(O)c(Cl)c5c4)c4ccc(O)c(c4)-c4c(O[C@H]5O[C@H](CO)[C@@H](O)[C@H](O)[C@@H]5O)cc(O)cc4[C@@H](C(=O)O)NC3=O)OC(C(=O)O)C(O)[C@@H]2O)cc1 (some centres undefined) | 32 | 2 | – | – | 8 | 1 (≈ 0.533 µM) | MIC (Enterococcus faecalis [19]): 8 µg/mL (≈ 4.27 µM); MIC (Enterococcus faecium [20]): > 128 µg/mL; MIC (Enterococcus faecium [21]): 2 µg/mL; MIC (Enterococcus faecalis [22]): 0.5 µg/mL; MIC (Staphylococcus aureus [23]): 2 µg/mL (≈ 1.07 µM)
